Active and inactive are the calls of the source.
What was measured:
[1] = test system: Human immunodeficiency virus; experiment: HIV-latency reversing activity in human NH2 cells at 10 nM pretreated with PKC inhibitor, Go6983 for 1 hr followed by compound addition and measured after 12 hrs by luciferase based assay; format: functional, organism-based
[2] = test system: Human immunodeficiency virus; experiment: HIV-latency reversing activity in human J-Lat Tat-GFP Clone A2 cells at 10 nM measured after 24 hrs by fluorescence based analysis; format: functional, organism-based
[3] = test system: Human immunodeficiency virus; experiment: HIV-latency reversing activity in human NH2 cells at 10 nM measured after 24 hrs by luciferase based assay; format: functional, organism-based
[4] = test system: Human immunodeficiency virus; experiment: Reactivation of latent HIV in human J-Lat Tat-GFP Clone A2 cells measured after 24 hrs by fluorescence based analysis; format: functional, organism-based; conditions: dose 0.5-40 nM
[5] = test system: Human immunodeficiency virus; experiment: Reactivation of latent HIV in human J-Lat 2D10 cells measured after 24 hrs by fluorescence based analysis; format: functional, organism-based; conditions: dose 0.5-40 nM
[6] = test system: Human immunodeficiency virus; experiment: Reactivation of latent HIV in human NH1 cells measured after 24 hrs by luciferase based analysis; format: functional, organism-based; conditions: dose 0.5-10 nM
[7] = test system: Human immunodeficiency virus; experiment: Reactivation of latent HIV in human NH2 cells at 10 nM by luciferase based analysis; format: functional, organism-based; conditions: time 6-36 hrs, TDE = time-dependent effect
[8] = test system: Human immunodeficiency virus; experiment: Reactivation of latent HIV in human NH2 cells measured after 24 hrs by luciferase based analysis; format: functional, organism-based; conditions: dose 0.5-10 nM
[9] = test system: Human immunodeficiency virus; experiment: Reactivation of latent HIV in human J-Lat Tat-GFP Clone A2 cells at 10 nM by fluorescence based analysis; format: functional, organism-based; conditions: time 6-36 hrs, TDE = time-dependent effect
[10] = test system: Human immunodeficiency virus; experiment: Reactivation of latent HIV in human J-Lat 2D10 cells at 10 nM by fluorescence based analysis; format: functional, organism-based; conditions: time 6-36 hrs, TDE = time-dependent effect
[11] = test system: Human immunodeficiency virus; experiment: Reactivation of latent HIV in human NH1 cells at 10 nM by luciferase based analysis; format: functional, organism-based; conditions: time 6-36 hrs, TDE = time-dependent effect
[12] = test system: J-Lat Tat-GFP Clone A2; experiment: Cytotoxicity against human J-Lat Tat-GFP Clone A2 cells at 1 uM incubated for 72 hrs; format: toxicity, cell-based; conditions: j-lat tat-gfp clone a2, 72 h
[13] = test system: NH2; experiment: Activation of NFkappaB signalling pathway in human NH2 cells assessed as induction of IkappaBalpha degradation measured after 1 hr by Western blot analysis; format: cell-based; conditions: filed as activator, dose 0-80 nM
[14] = test system: J-Lat Tat-GFP Clone A2; experiment: Activation of NFkappaB signalling pathway in human J-Lat Tat-GFP Clone A2 cells assessed as induction of IkappaBalpha degradation measured after 1 hr by Western blot analysis; format: cell-based; conditions: filed as activator, dose 0-80 nM
[15] = test system: NH2; experiment: Activation of NFkappaB signalling pathway in human NH2 cells assessed as induction of IkappaBalpha degradation at 40 nM by Western blot analysis; format: cell-based; conditions: filed as activator, time 5-120 min, TDE = time-dependent effect
[16] = test system: J-Lat Tat-GFP Clone A2; experiment: Activation of NFkappaB signalling pathway in human J-Lat Tat-GFP Clone A2 cells assessed as induction of IkappaBalpha degradation at 40 nM by Western blot analysis; format: cell-based; conditions: filed as activator, time 5-120 min, TDE = time-dependent effect
[17] = test system: NH2; experiment: Activation of NFkappaB signalling pathway in human NH2 cells assessed as increase in translocation of p65 from cytoplasm to nucleus at 40 nM measured after 15 to 60 mins by Western blot analysis; format: cell-based; conditions: filed as activator, time 15-60 min
[18] = test system: J-Lat Tat-GFP Clone A2; experiment: Activation of NFkappaB signalling pathway in human J-Lat Tat-GFP Clone A2 cells assessed as increase in translocation of p65 from cytoplasm to nucleus at 40 nM measured after 15 to 60 mins by Western blot analysis; format: cell-based; conditions: filed as activator, time 15-60 min
[19] = test system: Human immunodeficiency virus; experiment: HIV-latency reversing activity in human NH2 cells at 10 nM pretreated with PDTC for 1 hr followed by compound addition and measured after 12 hrs by luciferase based assay; format: functional, organism-based
[20] = test system: Human immunodeficiency virus; experiment: Reactivation of latent HIV in human J-Lat Tat-GFP Clone A2 cells assessed as increase in GFP expression at 0 to 20 nM measured after 24 hrs by fluorescence microscopy; format: functional, organism-based; conditions: dose 0-20 nM
[21] = test system: Human immunodeficiency virus; experiment: Reactivation of latent HIV in human NH1 cells assessed as fold change measured after 24 hrs by luciferase based analysis relative to -prostratin; format: functional
[22] = test system: Human immunodeficiency virus; experiment: Reactivation of latent HIV in human NH2 cells assessed as fold change measured after 24 hrs by luciferase based analysis relative to -prostratin; format: functional
[23] = test system: Human immunodeficiency virus; experiment: Reactivation of latent HIV in human J-Lat Tat-GFP Clone A2 cells assessed as increase in GFP expression at 10 nM by live fluorescence imaging analysis; format: functional, organism-based; conditions: time 6-36 hrs, TDE = time-dependent effect
[24] = test system: J-Lat Tat-GFP Clone A2; experiment: Upregulation of BZW1 gene expression in human J-Lat Tat-GFP Clone A2 cells at 10 nM measured after 6 hrs by transcriptome analysis; format: functional, cell-based
[25] = test system: J-Lat Tat-GFP Clone A2; experiment: Upregulation of CD69 gene expression in human J-Lat Tat-GFP Clone A2 cells at 10 nM measured after 6 hrs by transcriptome analysis; format: functional, cell-based
[26] = test system: J-Lat Tat-GFP Clone A2; experiment: Upregulation of CHCHD2 gene expression in human J-Lat Tat-GFP Clone A2 cells at 10 nM measured after 6 hrs by transcriptome analysis; format: functional, cell-based

C=C(C)[C@]12C[C@@H](C)[C@@]34O[C@]5(CCCCCCC[C@H](C)[C@H]6[C@H](C)C(=O)[C@@](O)([C@H](O)[C@@]7(CO)O[C@H]7[C@H]3[C@H]1O5)[C@@H]64)O2
Non-Toxic: Activity [12]
2500: fold change (FC) [21] | fold change (FC) [22]
inactive: Activity [1] | Activity [19]
active: Activity [2] | Activity [3] | Activity [4] Dose-Dependent Effect | Activity [5] Dose-Dependent Effect | Activity [6] Dose-Dependent Effect | Activity [7] Tde | Activity [8] Dose-Dependent Effect | Activity [9] Tde | Activity [10] Tde | Activity [11] Tde | Activity [13] Dose-Dependent Effect | Activity [14] Dose-Dependent Effect | Activity [15] Tde | Activity [16] Tde | Activity [17] | Activity [18] | Activity [20] | Activity [23] Tde | Activity [24] | Activity [25] | Activity [26]

Source: ChEMBL document CHEMBL5233271, “Discovering the Mechanisms of Wikstroelide E as a Potential HIV-Latency-Reversing Agent by Transcriptome Profiling” (J Nat Prod, 2021)
